Test [1] concerns Botrytis cinerea. The test can be described thus: Fungicidal activity against Botryotinia fuckeliana in 2 hr compound pretreated cucumber seedling assessed as inhibition of spot diameter squared as control efficiency at 200 ug/ml measured after 72 hr. The test is classed as functional. Set-up: scale not given: the % may be the effect or the level left.
Test [2] deals with Botrytis cinerea. The test can be described thus: Fungicidal activity against Botryotinia fuckeliana assessed as inhibition of mycelial growth measured after 72 hr. The test is classed as functional, organism-based.
In test [3] the test system is Botrytis cinerea. In words: Fungicidal activity against Botryotinia fuckeliana assessed as germ-tube elongation inhibition at 50 ug/ml measured after 24 hr. It is filed as functional.
Test [4] deals with Botrytis cinerea. The test can be described thus: Fungicidal activity against Botryotinia fuckeliana assessed as inhibition of spore germination measured after 24 hr. It is filed as functional, organism-based.

A word on the EC50: it is the concentration giving half of the maximal effect. By inhibition is commonly meant the drop in the measured response relative to a control, in per cent. One may read the EC80 as the concentration needed for an effect of 80%.

Values after ≈ are worked out from the molar mass of the structure shown.

Regarding `CC1(C)CC(=O)C(S(=O)(=O)Nc2ccc(Cl)cc2C(F)(F)F)=C(Nc2ccc(Cl)cc2C(F)(F)F)C1`, the Activity in the test with Botrytis cinerea [1] came to 47.92%. Also, in the test on Botrytis cinerea [2], the EC50 was 154 µg/mL (≈ 268 µM). Further, the inhibition at 50 µg/mL in the test on Botrytis cinerea [3] came out at 51.1%. Also, in the test with Botrytis cinerea [4], the EC50 turned out to be 6.14 µg/mL (≈ 10.7 µM) and the 80% effect concentration (EC80) was > 200 µg/mL.
Regarding `Cc1ccc(NC2=C(S(=O)(=O)Nc3ccc(C)cc3)C(=O)CC(C)(C)C2)cc1`, in the test on Botrytis cinerea [1], the Activity was found to be 58.6%. The half-maximal effective concentration (EC50) in the test with Botrytis cinerea [2] is 22.8 µg/mL (≈ 57.2 µM). The inhibition at 50 µg/mL in the test with Botrytis cinerea [3] was found to be 57.2%. In the test on Botrytis cinerea [4], the EC50 amounted to 3.29 µg/mL (≈ 8.26 µM) and the 80% effect concentration (EC80) is 72.1 µg/mL (≈ 181 µM).
In the case of `Cc1cc(F)ccc1NC1=C(S(=O)(=O)Nc2ccc(F)cc2C)C(=O)CC(C)(C)C1`, the Activity with Botrytis cinerea [1] came out at 73.46%. In addition, the results for the EC50 in the test with Botrytis cinerea [2] and in the test on Botrytis cinerea [4] were 45.7 µg/mL (≈ 105 µM) and 1.59 µg/mL (≈ 3.66 µM), respectively. For the same molecule, in the test on Botrytis cinerea [3], the inhibition at 50 µg/mL is 42.9%. The 80% effect concentration (EC80) with Botrytis cinerea [4] was > 200 µg/mL.
`CC1(C)CC(=O)C(S(=O)(=O)NC2CCCCC2)=C(NC2CCCCC2)C1`: the Activity with Botrytis cinerea [1] is 82.21%. Moreover, in the test on Botrytis cinerea [2], the concentration giving a half-maximal response (EC50) worked out at 63.7 µg/mL (≈ 167 µM). Moreover, the inhibition at 50 µg/mL in the test with Botrytis cinerea [3] was found to be 61.5%. In the test on Botrytis cinerea [4], the EC50 stood at 0.64 µg/mL (≈ 1.67 µM) and the EC80 was 15.4 µg/mL (≈ 40.3 µM).
Consider `CC1(C)CC(=O)C(S(=O)(=O)Nc2cccc(Cl)c2)=C(Nc2cccc(Cl)c2)C1`, for which, in the test with Botrytis cinerea [1], the Activity amounted to 58.51%. The EC50 in the test on Botrytis cinerea [2] is 32.7 µg/mL (≈ 74.4 µM). The inhibition at 50 µg/mL in the test on Botrytis cinerea [3] was 58.6%. In the test with Botrytis cinerea [4], the EC50 stood at 3.03 µg/mL (≈ 6.9 µM) and the concentration for an effect of 80% (EC80) came out at 128 µg/mL (≈ 290 µM).
For `CC1(C)CC(=O)C(S(=O)(=O)Nc2ccc(Cl)c(Cl)c2)=C(Nc2ccc(Cl)c(Cl)c2)C1`, in the test with Botrytis cinerea [1], the Activity came out at 69.77%. Further, the concentration for a half-maximal effect (EC50) in the test on Botrytis cinerea [2] came to 67.7 µg/mL (≈ 133 µM). Further, the inhibition at 50 µg/mL in the test with Botrytis cinerea [3] is 64.3%. Further, in the test with Botrytis cinerea [4], the EC50 is 2.66 µg/mL (≈ 5.23 µM) and the EC80 was 12.3 µg/mL (≈ 24.2 µM).
For `CC1(C)CC(=O)C(S(=O)(=O)Nc2cc(C(F)(F)F)cc(C(F)(F)F)c2)=C(Nc2cc(C(F)(F)F)cc(C(F)(F)F)c2)C1`, the Activity in the test on Botrytis cinerea [1] is on record as 75.29%. Further, the 50% effective concentration (EC50) in the test on Botrytis cinerea [2] was 92.2 µg/mL (≈ 144 µM). In addition, the inhibition at 50 µg/mL in the test with Botrytis cinerea [3] came to 61.5%. Besides, in the test on Botrytis cinerea [4], the EC50 was determined as 0.51 µg/mL (≈ 0.794 µM) and the EC80 came out at 34.8 µg/mL (≈ 54.2 µM).
Turning to `Cc1ccccc1NC1=C(S(=O)(=O)Nc2ccccc2C)C(=O)CC(C)(C)C1`, the Activity in the test on Botrytis cinerea [1] came to 64.43%. Also, the EC50 in the test with Botrytis cinerea [2] is 8.05 µg/mL (≈ 20.2 µM). The inhibition at 50 µg/mL in the test on Botrytis cinerea [3] was determined as 57.2%. For the same molecule, in the test on Botrytis cinerea [4], the 50% effective concentration (EC50) came to 19.5 µg/mL (≈ 49 µM) and the concentration for an effect of 80% (EC80) was found to be 140 µg/mL (≈ 352 µM).
With `CC1(C)CC(=O)C(S(=O)(=O)Nc2cccc(C(F)(F)F)c2)=C(Nc2cccc(C(F)(F)F)c2)C1`, the Activity in the test with Botrytis cinerea [1] came to 67.74%. Besides, the results for the 50% effective concentration (EC50) in the test on Botrytis cinerea [2] and in the test on Botrytis cinerea [4] were 156 µg/mL (≈ 308 µM) and 0.16 µg/mL (≈ 0.316 µM), respectively. The inhibition at 50 µg/mL in the test with Botrytis cinerea [3] came out at 30.6%. In addition, the EC80 in the test with Botrytis cinerea [4] amounted to 14.2 µg/mL (≈ 27.9 µM).
Take `O=C1CCCC(Nc2ccccc2Cl)=C1S(=O)(=O)Nc1ccccc1Cl`: the Activity in the test on Botrytis cinerea [1] is 74.81%. In addition, the half-maximal effective concentration (EC50) in the test on Botrytis cinerea [2] turned out to be 10.6 µg/mL (≈ 25.7 µM). The inhibition at 50 µg/mL with Botrytis cinerea [3] is 81.9%. Besides, in the test with Botrytis cinerea [4], the EC50 worked out at 0.37 µg/mL (≈ 0.9 µM) and the 80% effect concentration (EC80) is 60.9 µg/mL (≈ 148 µM).
Take `CC1(C)CC(=O)C(S(=O)(=O)Nc2ccccc2)=C(Nc2ccccc2)C1`: the Activity with Botrytis cinerea [1] was 61.17%. The concentration giving a half-maximal response (EC50) with Botrytis cinerea [2] was 147 µg/mL (≈ 398 µM). The inhibition at 50 µg/mL in the test on Botrytis cinerea [3] stood at 21.4%. Moreover, in the test with Botrytis cinerea [4], the half-maximal effective concentration (EC50) turned out to be 96.6 µg/mL (≈ 261 µM) and the concentration for an effect of 80% (EC80) is > 200 µg/mL.
`Cc1ccc(NC2=C(S(=O)(=O)Nc3ccc(C)cc3)C(=O)CCC2)cc1`: the Activity in the test on Botrytis cinerea [1] was determined as 57.48%. Besides, the EC50 in the test with Botrytis cinerea [2] is 47.4 µg/mL (≈ 128 µM); in the test with Botrytis cinerea [4] it was 0.54 µg/mL (≈ 1.46 µM). Also, the inhibition at 50 µg/mL in the test on Botrytis cinerea [3] stood at 20.5%. The concentration for an effect of 80% (EC80) with Botrytis cinerea [4] was 117 µg/mL (≈ 315 µM).
As for `O=C1CCCC(Nc2ccc(Cl)cc2)=C1S(=O)(=O)Nc1ccc(Cl)cc1`, in the test with Botrytis cinerea [1], the Activity is listed as 53.57%. Besides, the 50% effective concentration (EC50) in the test with Botrytis cinerea [2] stood at 125 µg/mL (≈ 305 µM). Besides, the inhibition at 50 µg/mL with Botrytis cinerea [3] is 61.3%. Also, in the test on Botrytis cinerea [4], the EC50 was found to be 0.26 µg/mL (≈ 0.632 µM) and the 80% effect concentration (EC80) was > 200 µg/mL.
Regarding `CC12CC1(C)C(=O)N(c1cc(Cl)cc(Cl)c1)C2=O` (stereo not given) [PROCYMIDONE], in the test on Botrytis cinerea [1], the Activity is given as 80.39%. Moreover, the concentration for a half-maximal effect (EC50) in the test with Botrytis cinerea [2] amounted to 0.63 µg/mL (≈ 2.22 µM). In the test with Botrytis cinerea [3], the inhibition at 50 µg/mL was 100%. In the test on Botrytis cinerea [4], the EC50 came to 0.98 µg/mL (≈ 3.45 µM) and the concentration for an effect of 80% (EC80) is 3.18 µg/mL (≈ 11.2 µM).
As for `CC1(C)CC(=O)C(S(=O)(=O)Nc2ccc(Cl)cc2)=C(Nc2ccc(Cl)cc2)C1`, the Activity in the test on Botrytis cinerea [1] was determined as 65.89%. The 50% effective concentration (EC50) with Botrytis cinerea [2] turned out to be 128 µg/mL (≈ 290 µM). Besides, the inhibition at 50 µg/mL in the test with Botrytis cinerea [3] turned out to be 78.6%. Further, in the test on Botrytis cinerea [4], the EC50 worked out at 0.54 µg/mL (≈ 1.23 µM) and the EC80 came out at 7.04 µg/mL (≈ 16 µM).
The matching figures for `CC1(C)CC(=O)C(S(=O)(=O)NCc2ccccc2)=C(NCc2ccccc2)C1`: 42.16%, 26.4 µg/mL (≈ 66.2 µM), 28.6%, 73.4 µg/mL (≈ 184 µM) and 139 µg/mL (≈ 349 µM).
As for `CC1(C)CC(=O)C(S(=O)(=O)Nc2ccccc2Cl)=C(Nc2ccccc2Cl)C1`, the Activity with Botrytis cinerea [1] came out at 73.39%. The results for the EC50 with Botrytis cinerea [2] and in the test on Botrytis cinerea [4] were 21.2 µg/mL (≈ 48.2 µM) and 0.34 µg/mL (≈ 0.774 µM), respectively. Besides, the inhibition at 50 µg/mL with Botrytis cinerea [3] was 85.7%. In addition, the concentration for an effect of 80% (EC80) with Botrytis cinerea [4] was 4.53 µg/mL (≈ 10.3 µM).
Consider `CCCNC1=C(S(=O)(=O)NCCC)C(=O)CC(C)(C)C1`, for which the Activity in the test on Botrytis cinerea [1] came out at 66.59%. The EC50 in the test with Botrytis cinerea [2] was determined as 149 µg/mL (≈ 494 µM). Moreover, in the test on Botrytis cinerea [3], the inhibition at 50 µg/mL stood at 51.2%. For the same molecule, in the test with Botrytis cinerea [4], the half-maximal effective concentration (EC50) was 0.23 µg/mL (≈ 0.76 µM) and the EC80 was determined as 15.6 µg/mL (≈ 51.7 µM).
For `CC1(C)CC(=O)C(S(=O)(=O)Nc2ccc(Br)cc2)=C(Nc2ccc(Br)cc2)C1`, the Activity in the test with Botrytis cinerea [1] was found to be 45.09%. The EC50 with Botrytis cinerea [2] worked out at 39.1 µg/mL (≈ 74.1 µM). For the same molecule, in the test on Botrytis cinerea [3], the inhibition at 50 µg/mL was found to be 67.9%. In addition, in the test with Botrytis cinerea [4], the EC50 was 1.44 µg/mL (≈ 2.73 µM) and the 80% effect concentration (EC80) was found to be 7.39 µg/mL (≈ 14 µM).

The record behind these values is ChEMBL document CHEMBL3044660, “Synthesis of 2-amino-6-oxocyclohexenylsulfonamides and their activity against Botrytis cinerea” (Pest Manag Sci, 2011).
